Data taken from patent publication US12162867B2, “Inhibitors of RNA helicase DHX9 and uses thereof” (ACCENT THERAPEUTICS, INC., priority 2022, dated 2024).
Read-outs that look alike come from different tables or passages of the source.

System: circBRIP1 in HCT116 cells
Test: DHX9 circBRIP1 cellular target engagement SYBR Green assay (qPCR)
Type: cell-based
Conditions: SyBr assay (marked ^+), read-out: DHX9 Cellular Target Engagement EC50
[1] = Homo sapiens, HCT-116, circBRIP1, HCT116 cells

Compound: CS(=O)(=O)Nc1cc(Cl)cc(NC(=O)c2cnn(-c3ncccc3OCc3ccccc3F)c2)c1 [Example 189]
- EC50 [1]: 0.308 µM

Compound: CS(=O)(=O)Nc1cc(Cl)cc(NC(=O)c2cnn(-c3ccc(C4CCOCC4)cn3)c2)c1 [Example 190]
- EC50 [1]: 0.373 µM

Compound: CS(=O)(=O)Nc1cc(Cl)cc(NC(=O)c2cnn(-c3ccc(N4CCn5ccnc5C4)cn3)c2)c1 [Example 192]
- EC50 [1]: 3.6 µM

Compound: CN1CCN(c2cnc(-n3cc(C(=O)Nc4cc(Cl)cc(NS(C)(=O)=O)c4)cn3)c(OCc3cccnc3)c2)CC1=O [Example 193]
- EC50 [1]: > 10 µM

Compound: CS(=O)(=O)Nc1cc(Cl)cc(NC(=O)c2cnn(-c3ncc(N4CCOCC4)cc3OCc3cccnc3)c2)c1 [Example 194]
- EC50 [1]: 2.68 µM

Compound: CC(C)(O)COc1cccnc1-n1cc(C(=O)Nc2cc(Cl)cc(NS(C)(=O)=O)c2)cn1 [Example 195]
- EC50 [1]: 0.751 µM

Compound: CS(=O)(=O)Nc1cc(Cl)cc(NC(=O)c2cnn(-c3ncccc3Oc3ncccn3)c2)c1 [Example 196]
- EC50 [1]: 6.73 µM

Compound: COc1ccc(-n2cc(C(=O)Nc3cc(Cl)cc(NS(C)(=O)=O)c3)cn2)nc1 [Example 197]
- EC50 [1]: 2.37 µM

Compound: CS(=O)(=O)Nc1cc(Cl)cc(NC(=O)c2cnn(-c3ccc(S(C)(=O)=O)cn3)c2)c1 [Example 198]
- EC50 [1]: > 10 µM

Compound: CS(=O)(=O)Nc1cc(Cl)cc(NC(=O)c2cnn(-c3ncccc3S(C)(=O)=O)c2)c1 [Example 199]
- EC50 [1]: > 10 µM

Compound: CN(C)S(=O)(=O)c1ccc(-n2cc(C(=O)Nc3cc(Cl)cc(NS(C)(=O)=O)c3)cn2)nc1 [Example 200]
- EC50 [1]: 1.31 µM

Compound: CP(C)(=O)c1cccnc1-n1cc(C(=O)Nc2cc(Cl)cc(NS(C)(=O)=O)c2)cn1 [Example 201]
- EC50 [1]: > 10 µM

Compound: CS(=O)(=O)Nc1cc(Cl)cc(NC(=O)c2cnn(-c3ncc(F)cc3OCc3cccc(C#N)c3)c2)c1 [Example 203]
- EC50 [1]: 0.341 µM

Compound: CS(=O)(=O)Nc1cc(Cl)cc(NC(=O)c2cnn(-c3ncccc3OCc3nccs3)c2)c1 [Example 205]
- EC50 [1]: 0.841 µM

Compound: CS(=O)(=O)Nc1cc(Cl)cc(NC(=O)c2cnn(-c3ncccc3OCc3cn[nH]c3)c2)c1 [Example 206]
- EC50 [1]: 1.06 µM

Compound: Cc1cc(C(=O)Nc2cc(Cl)cc(NS(C)(=O)=O)c2)cn1-c1ncc(F)cn1 [Example 207]
- EC50 [1]: 0.508 µM

Compound: CS(=O)(=O)Nc1cc(Cl)cc(NC(=O)c2cc3ccccn3c2)c1 [Example 209]
- EC50 [1]: 3.46 µM

Compound: CS(=O)(=O)Nc1cc(Cl)cc(NC(=O)c2cnn(-c3c(F)cccc3OCc3cccc(F)c3)c2)c1 [Example 211]
- EC50 [1]: 0.189 µM

Compound: CSc1ccc(-n2cc(C(=O)Nc3cc(Cl)cc(NS(C)(=O)=O)c3)cn2)nc1 [Example 218]
- EC50 [1]: 1.39 µM

Compound: CSc1cccnc1-n1cc(C(=O)Nc2cc(Cl)cc(NS(C)(=O)=O)c2)cn1 [Example 219]
- EC50 [1]: 0.265 µM

Compound: CS(=O)(=O)Nc1cc(Cl)cc(NC(=O)c2cc(-c3ncccc3NC(=O)C3CC3)cs2)c1 [Example 220]
- EC50 [1]: 0.303 µM

Compound: CN(C)C(=O)Cc1cccnc1-c1csc(C(=O)Nc2cc(Cl)cc(NS(C)(=O)=O)c2)c1 [Example 221]
- EC50 [1]: 0.121 µM

Compound: CN(C)C(=O)c1cccnc1-c1csc(C(=O)Nc2cc(Cl)cc(NS(C)(=O)=O)c2)c1 [Example 222]
- EC50 [1]: 0.2 µM

Compound: CS(=O)(=O)Nc1cc(Cl)cc(NC(=O)c2cc(-c3ncccc3C(F)(F)F)cs2)c1 [Example 223]
- EC50 [1]: 0.421 µM

Compound: CCS(=O)(=O)Nc1cc(Cl)cc(NC(=O)c2cc(-c3ncc(F)cc3C)cs2)c1 [Example 226]
- EC50 [1]: 0.388 µM

Compound: CS(=O)(=O)Nc1cc(Cl)cc(NC(=O)c2cc3ccncc3s2)c1 [Example 230]
- EC50 [1]: 7.25 µM

Compound: CCc1sc(C(=O)Nc2cc(Cl)cc(NS(C)(=O)=O)c2)cc1-c1ccccn1 [Example 232]
- EC50 (circBRIP1, HCT116 cells): 0.061 µM

Compound: COCc1sc(C(=O)Nc2cc(Cl)cc(NS(C)(=O)=O)c2)cc1-c1ccccn1 [Example 234]
- EC50 [1]: 1.18 µM

Compound: Cc1sc(C(=O)Nc2cc(Cl)cc(NS(C)(=O)=O)c2)cc1-c1cn(Cc2ccccc2)nn1 [Example 235]
- EC50 [1]: 0.645 µM

Compound: Cc1sc(C(=O)Nc2cc(Cl)cc(NS(C)(=O)=O)c2)cc1-c1cn(-c2ccccc2)nn1 [Example 236]
- EC50 [1]: 0.106 µM

Compound: CN(c1ncccn1)c1cccnc1-c1csc(C(=O)Nc2cc(Cl)cc(NS(C)(=O)=O)c2)c1 [Example 238]
- EC50 [1]: 0.289 µM

Compound: CS(=O)(=O)Nc1cc(Cl)cc(NC(=O)c2cc(-c3ncccc3Oc3cccnc3)cs2)c1 [Example 239]
- EC50 [1]: 0.348 µM

Compound: Cc1sc(C(=O)Nc2cc(Cl)cc(NS(C)(=O)=O)c2)cc1-c1c(F)cccc1OCc1ccccc1 [Example 240]
- EC50 [1]: 0.228 µM

Compound: CS(=O)(=O)Nc1cc(Cl)cc(NC(=O)c2cc(Br)cs2)c1 [Example 241]
- EC50 [1]: 3.68 µM

Compound: COC(=O)[C@@H]1CCCN1c1csc(C(=O)Nc2cc(Cl)cc(NS(C)(=O)=O)c2)c1 [Example 242]
- EC50 [1]: 5.02 µM

Compound: CS(=O)(=O)Nc1cc(Cl)cc(NC(=O)c2cc(C3CCNCC3)cs2)c1 [Example 243]
- EC50 [1]: > 10 µM

Compound: CS(=O)(=O)Nc1cc(Cl)cc(NC(=O)c2cc(N3CCNCC3)cs2)c1 [Example 244]
- EC50 [1]: > 10 µM

Compound: CS(=O)(=O)Nc1cc(Cl)cc(NC(=O)c2cc(N3CCOCC3)cs2)c1 [Example 245]
- EC50 [1]: 4.31 µM

Compound: CS(=O)(=O)Nc1cc(Cl)cc(NC(=O)c2cc(N3CCN(CC(F)(F)F)CC3)cs2)c1 [Example 246]
- EC50 [1]: 3.93 µM

Compound: Cc1cc(C(=O)Nc2cc(Cl)cc(NS(=O)(=O)C3CC3)c2)cn1-c1ccc(N2CCOCC2)cn1 [Example 247]
- EC50 [1]: 2.24 µM

Compound: Cc1cc(C(=O)Nc2cc(Cl)cc(NS(=O)(=O)C(F)F)c2)cn1-c1ccc(N2CCOCC2)cn1 [Example 248]
- EC50 [1]: > 10 µM

Compound: CCS(=O)(=O)Nc1cc(Cl)cc(NC(=O)c2cc(C)n(-c3ccc(N4CCOCC4)cn3)c2)c1 [Example 249]
- EC50 [1]: 0.0295 µM

Compound: CS(=O)(=O)Nc1cc(Cl)cc(NC(=O)c2cnn(C3CC4CCC(C3)O4)c2)c1 (stereo not shown) [Example 250]
- EC50 [1]: 3.55 µM

Compound: CS(=O)(=O)Nc1cc(Cl)cc(NC(=O)c2cnn(-c3ncccc3OCc3ncc[nH]3)c2)c1 [Example 252]
- EC50 [1]: 1.79 µM

Compound: CS(=O)(=O)Nc1cc(Cl)cc(NC(=O)c2cnn(-c3ncccc3OCc3ccn[nH]3)c2)c1 [Example 253]
- EC50 [1]: 9.23 µM

Compound: CS(=O)(=O)Nc1cc(Cl)cc(NC(=O)c2cnn(-c3ncccc3OCc3c[nH]cn3)c2)c1 [Example 254]
- EC50 [1]: 0.578 µM

Compound: CS(=O)(=O)Nc1cc(Cl)cc(NC(=O)c2cnn(-c3ccccc3-c3cncc(F)c3)c2)c1 [Example 257]
- EC50 [1]: 2.61 µM

Compound: CS(=O)(=O)Nc1cc(Cl)cc(NC(=O)c2cnn(-c3ncc(N4CC5(COC5)C4)cc3OCc3cc(F)cc(F)c3)c2)c1 [Example 258]
- EC50 [1]: 0.291 µM

Compound: Cc1cnc(-n2cc(C(=O)Nc3cc(Cl)cc(NS(C)(=O)=O)c3)cn2)c(OCc2cnco2)c1 [Example 261]
- EC50 [1]: 1.53 µM

Compound: CS(=O)(=O)Nc1cc(Cl)cc(NC(=O)c2cnn(-c3ncccc3COc3cncc(F)c3)c2)c1 [Example 262]
- EC50 [1]: 0.439 µM

Compound: CS(=O)(=O)Nc1cc(Cl)cc(NC(=O)c2cnn(-c3ccccc3Oc3ncccn3)c2)c1 [Example 263]
- EC50 [1]: > 10 µM

Compound: CS(=O)(=O)Nc1cc(Cl)cc(NC(=O)c2cnn(-c3ccccc3Oc3cccnc3)c2)c1 [Example 264]
- EC50 [1]: 3.54 µM

Compound: CS(=O)(=O)Nc1cc(Cl)cc(NC(=O)c2cnn(-c3ccccc3Oc3cccc(F)c3)c2)c1 [Example 265]
- EC50 [1]: 4.65 µM

Compound: CN1CCC(c2ccc(-n3cc(C(=O)Nc4cc(Cl)cc(NS(C)(=O)=O)c4)cn3)nc2)CC1=O (stereo not shown) [Example 266]
- EC50 [1]: 1.16 µM

Compound: CS(=O)(=O)Nc1cc(Cl)cc(NC(=O)c2cc(C(F)(F)F)n(-c3ccc(F)cn3)c2)c1 [Example 267]
- EC50 [1]: 2.26 µM

Compound: Cn1cc(C(=O)Nc2cc(Cl)cc(NS(C)(=O)=O)c2)cc1-c1ncc(F)cc1OCc1cnco1 [Example 268]
- EC50 [1]: 0.182 µM

Compound: Cc1cc(C(=O)Nc2cc(Cl)cc(NS(C)(=O)=O)c2)cn1-c1ccc(N(C)C2CCOC2)cn1 (stereo not shown) [Example 269]
- EC50 [1]: 0.037 µM

Compound: Cc1cc(C(=O)Nc2cc(Cl)cc(NS(C)(=O)=O)c2)cn1-c1ccc(N2CCCC2)cn1 [Example 270]
- EC50 [1]: 0.101 µM

Compound: CS(=O)(=O)Nc1cc(Cl)cc(NC(=O)c2cc(C(F)(F)F)n(-c3ccc(N4CCOCC4)cn3)c2)c1 [Example 271]
- EC50 [1]: 0.761 µM

Compound: Cc1cc(C(=O)Nc2cc(Cl)cc(NS(C)(=O)=O)c2)cn1-c1ccc(N2CCOC(C)(C)C2)cn1 [Example 272]
- EC50 [1]: 0.0311 µM

Compound: Cn1cc(C(=O)Nc2cc(Cl)cc(NS(C)(=O)=O)c2)cc1-c1ccc(N2CCOCC2)cn1 [Example 273]
- EC50 [1]: 0.0375 µM

Compound: CCn1cc(C(=O)Nc2cc(Cl)cc(NS(C)(=O)=O)c2)cc1-c1ccc(N2CCOCC2)cn1 [Example 274]
- EC50 [1]: 0.0979 µM

Compound: CS(=O)(=O)Nc1cc(Cl)cc(NC(=O)c2cc(-c3ccc(N4CCOCC4)cn3)n(CC(F)(F)F)c2)c1 [Example 275]
- EC50 [1]: 0.19 µM

Compound: CS(=O)(=O)Nc1cc(Cl)cc(NC(=O)c2cc(-c3ccc(N4CC5(COC5)C4)cn3)n(CC(F)(F)F)c2)c1 [Example 278]
- EC50 [1]: 0.251 µM

Compound: Cc1cc(C(=O)Nc2cc(Cl)cc(NS(C)(=O)=O)c2)cn1C1CCCC1 [Example 282]
- EC50 [1]: 1.88 µM

Compound: Cc1cc(C(=O)Nc2cc(Cl)cc(NS(C)(=O)=O)c2)cn1-c1ccc(N2CCS(=O)(=O)CC2)cn1 [Example 285]
- EC50 [1]: 0.503 µM

Compound: CS(=O)(=O)Nc1cc(Cl)cc(NC(=O)c2cc3cnccc3s2)c1 [Example 288]
- EC50 [1]: 7.8 µM

Compound: CS(=O)(=O)Nc1cc(Cl)cc(NC(=O)c2cc3ncccc3s2)c1 [Example 289]
- EC50 [1]: 6.55 µM

Compound: Cc1cncc2cc(C(=O)Nc3cc(Cl)cc(NS(C)(=O)=O)c3)sc12 [Example 290]
- EC50 [1]: > 10 µM

Compound: CS(=O)(=O)Nc1cc(Cl)cc(NC(=O)c2cc3cccnn3c2)c1 [Example 292]
- EC50 [1]: 2.3 µM

Compound: CS(=O)(=O)Nc1cc(Cl)cc(NC(=O)c2cc3ccc(Cl)cc3s2)c1 [Example 293]
- EC50 [1]: > 10 µM

Compound: CS(=O)(=O)Nc1cc(Cl)cc(NC(=O)c2cc3ccc(F)cc3s2)c1 [Example 294]
- EC50 [1]: > 10 µM

Compound: CS(=O)(=O)Nc1cc(Cl)cc(NC(=O)c2cc3cc(F)ccc3s2)c1 [Example 295]
- EC50 [1]: > 10 µM

Compound: CS(=O)(=O)Nc1cc(Cl)cc(NC(=O)c2cc3c(F)cccc3s2)c1 [Example 296]
- EC50 [1]: 1.14 µM

Compound: CS(=O)(=O)Nc1cc(Cl)cc(NC(=O)c2cc3cccc(F)c3s2)c1 [Example 297]
- EC50 [1]: > 10 µM

Compound: CS(=O)(=O)Nc1cc(Cl)cc(NC(=O)c2cc3cc(Cl)ccc3s2)c1 [Example 298]
- EC50 [1]: > 10 µM
